Values of other authors as cited in patent publication US20220016082A1, “COMBINATION THERAPIES FOR HIGH AND VERY HIGH RISK MDS” (MEI Pharma, Inc., priority 2018, published 2022).

Assays:
[1] = tested on: Higher-Risk Myelodysplastic Syndromes and Chronic Myelomonocytic Leukemia; conditions: arms N = 92 / 93 / 92; total N = 277
MDS = conditions: N = 179

Nc1ncn([C@@H]2O[C@H](CO)[C@@H](O)[C@H]2O)c(=O)n1 [AZA Monotherapy, 5-azacytidine]
CR (of CR/PR/HI) [1]: 24% | HI (of CR/PR/HI) [1]: 14% | Marrow CR [1]: 12% | ORR = CR + PR + mCR [1]: 38% | PR (of CR/PR/HI) [1]: 0% | CR (of CR + PR) (MDS): 17% | CR + PR (MDS): 29% | HI (MDS): 49% | PR (of CR + PR) (MDS): 12%
